Where “and” joins values, the source holds several entries; their conditions need not be identical. Identical values can stand only once. Like-named read-outs stand apart in the source and are kept apart here.
Tests used:
[1] = molecular target: 2009 H1N1 influenza A endonuclease (PAN domain) (Influenza A virus, UniProt C3W5S0); experiment: biochemical; set-up: species or system Influenza A (pandemic 2009 H1N1); details: fluorescence change over time at 37 degrees Celsius
[2] = IC50 (uM) using either 500 nM or 50 nM enzyme
[3] = 500 nM or 50 nM enzyme, read-out: IC50 (uM) using either 500 nM or 50 nM enzyme

SMILES | IC50 [1, 2] | IC50 [1, 3] [µM] | melting point [°C]
O=c1[nH]c(C2CCCCC2)ccc1O [6-Cyclohexyl-3-hydroxypyridin-2(1H)-one] | 2.5 µM | – | –
O=c1[nH]c(-c2ccc(-c3nnn[nH]3)cc2)c(-c2ccc(F)cc2)cc1O [6-(4-(1H-Tetrazol-5-yl)phenyl)-5-(4-fluorophenyl)-3-hydroxypyridin-2(1H)-one] | 0.018 µM | – | –
O=c1[nH]c(-c2cccc(-c3nnn[nH]3)c2)ncc1O [2-(3-(1H-Tetrazol-5-yl)phenyl)-5-hydroxypyrimidin-4(3H)-one] | – | 0.48 | –
O=C(O)c1cccc(-c2c[nH]c(=O)c(O)c2)c1 [3-(5-Hydroxy-6-oxo-1,6-dihydropyridin-3-yl)benzoic acid] | 1.79 µM | – | –
NC(=O)c1cccc(-c2cc(O)c(=O)[nH]c2-c2cccc(C(N)=O)c2)c1 | 0.11 µM | – | –
O=c1[nH]c(-c2ccc(-c3nnn[nH]3)cc2)ccc1O [6-[4-(1H-tetrazol-5-yl)phenyl]-3-hydroxypyridin-2(1H)-one] | 0.85 µM | – | –
O=c1[nH]c(-c2ccccc2)c(-c2ccccc2)cc1O [5,6-bis(phenyl)-3-hydroxypyridin-2(1H)-one] | 0.12 µM and 0.047 µM | – | 249 to 255
O=c1[nH]c(-c2ccc(F)cc2)ccc1O [6-(4-Fluoro-phenyl)-3-hydroxypyridin-2(1H)-one] | – | 0.43 | –
CC(C)(C)c1ccc(-c2ccc(O)c(=O)[nH]2)cc1 [6-(4-(tert-Butyl)phenyl)-3-hydroxypyridin-2(1H)-one] | 1.6 µM | – | –
O=C(O)c1ccc(-c2c[nH]c(=O)c(O)c2)cc1 [4-(5-Hydroxy-6-oxo-1,6-dihydropyridin-3-yl)benzoic acid] | 0.51 µM | – | –
O=c1[nH]c(C2=CCCCC2)ccc1O [6-(Cyclohex-1-en-1-yl)-3-hydroxypyridin-2(1H)-one] | 0.75 µM | – | –
O=c1[nH]cc(Br)cc1O [5-Bromo-3-hydroxypyridin-2(1H)-one] | 5 µM | – | –
O=c1[nH]c(-c2ccc(-c3nnn[nH]3)cc2)c(-c2ccc(-c3nnn[nH]3)cc2)cc1O [5,6-bis[4-(1H-Tetrazol-5-yl)phenyl]-3-hydroxypyridin-2(1H)-one] | 0.29 µM | – | 180 to 182
O=C(O)c1ccc(-c2cc(O)c(=O)[nH]c2-c2ccc(C(=O)O)cc2)cc1 [4,4′-(5-hydroxy-6-oxo-1,6-dihydropyridine-2,3-diyl)dibenzoic acid] | 0.9 µM | – | –
O=c1[nH]c(-c2ccc(-c3nnn[nH]3)cc2)ncc1O [2-(4-(1H-Tetrazol-5-yl)phenyl)-5-hydroxypyrimidin-4(3H)-one] | – | 0.15 | –
O=c1[nH]cc(-c2ccc(-c3nnn[nH]3)cc2)cc1O [5-[4-(1H-Tetrazol-5-yl)phenyl]-3-hydroxypyridin-2(1H)-one] | 0.37 µM | – | –
O=c1[nH]cc(-c2ccc(F)cc2)cc1O [5-(4-Fluorophenyl)-3-hydroxypyridin-2(1H)-one] | – | 0.73 | –
O=c1[nH]c(-c2ccc([N+](=O)[O-])cc2)c(-c2ccc([N+](=O)[O-])cc2)cc1O [3-Hydroxy-5,6-bis(4-nitrophenyl)pyridin-2(1H)-one] | 0.72 µM | – | –
N#Cc1cccc(-c2ncc(O)c(=O)[nH]2)c1 [3-(5-Hydroxy-6-oxo-1,6-dihydropyrimidin-2-yl)benzonitrile] | – | 0.25 | –
O=c1[nH]cc(Cl)cc1O [5-Chloro-3-hydroxypyridin-2(1H)-one] | 5 µM | – | –
O=c1[nH]ncc(-c2ccc(F)cc2)c1O [5-(4-Fluorophenyl)-4-hydroxypyridazin-3(2H)-one] | > 200 µM | – | 274 to 276
O=C(O)c1cccc(-c2cc(O)c(=O)[nH]c2-c2ccc(F)cc2)c1 [3-(2-(4-Fluorophenyl)-5-hydroxy-6-oxo-1,6-dihydropyridin-3-yl)benzoic acid] | 0.035 µM | – | –
N#Cc1ccc(Nc2cc(O)c(=O)[nH]c2-c2ccc(F)cc2)cc1 [4-((2-(4-Fluorophenyl)-5-hydroxy-6-oxo-1,6-dihydropyridin-3-yl)amino)benzonitrile] | 1 µM | – | –
O=c1[nH]c(-c2cccc(F)c2)ccc1O [6-(3-Fluorophenyl)-3-hydroxypyridin-2(1H)-one] | 0.53 µM | – | –
O=c1[nH]c(Br)c(Br)cc1O [5,6-Dibromo-3-hydroxypyridin-2(1H)-one] | 1.5 µM | – | –
N#Cc1cccc(-c2cc(O)c(=O)[nH]c2-c2ccc(F)cc2)c1 [3-(2-(4-Fluorophenyl)-5-hydroxy-6-oxo-1,6-dihydropyridin-3-yl)benzonitrile] | 0.049 µM | – | –
O=c1[nH]c(Br)c(-c2ccc(F)cc2)cc1O [6-Bromo-5-(4-fluorophenyl)-3-hydroxypyridin-2(1H)-one] | 4.2 µM | – | –

SMILES | IC50 [1, 2] | IC50 [1, 3] [µM] | melting point [°C]
O=c1[nH]nc(-c2ccc(F)cc2)cc1O [6-(4-Fluorophenyl)-4-hydroxypyridazin-3(2H)-one] | – | 6 | 281 to 283
O=c1[nH]cc(C2CCCCC2)cc1O [5-Cyclohexyl-3-hydroxypyridin-2(1H)-one] | 2.1 µM | – | –
O=c1[nH]c(-c2ccc(F)cc2)c(-c2ccc(F)cc2)cc1O [5,6-bis(4-Fluorophenyl)-3-hydroxypyridin-2(1H)-one] | – | – | 152 to 157
O=c1[nH]c(Cc2ccc(-c3ccccc3)cc2)c(-c2ccc(F)cc2)cc1O [6-([1,1′-Biphenyl]-4-ylmethyl)-5-(4-fluorophenyl)-3-hydroxypyridin-2(1H)-one] | 0.12 µM | – | –
O=c1[nH]cc(Cc2ccc(F)cc2)cc1O [5-(4-Fluorobenzyl)-3-hydroxypyridin-2(1H)-one] | 8.6 µM | – | –
COc1ccc(-c2ccc(O)c(=O)[nH]2)cc1 [3-Hydroxy-6-(4-methoxyphenyl)pyridin-2(1H)-one] | 1.2 µM | – | –
O=c1[nH]c(-c2ccc(F)cc2)c(-c2cccc(-c3nnn[nH]3)c2)cc1O [5-(3-(1H-Tetrazol-5-yl)phenyl)-6-(4-fluorophenyl)-3-hydroxypyridin-2(1H)-one] | 0.034 µM | – | –
N#Cc1ccc(-c2ncc(O)c(=O)[nH]2)cc1 [4-(5-Hydroxy-6-oxo-1,6-dihydropyrimidin-2-yl)benzonitrile] | – | 0.52 | –
O=c1[nH]c(-c2ccc(F)cc2)ncc1O [2-(4-Fluorophenyl)-5-hydroxypyrimidin-4(3H)-one] | – | 0.58 | 252 to 254
O=c1[nH]cc(-c2cccc(F)c2)cc1O [5-(3-Fluorophenyl-3-hydroxypyridin-2(1H)-one] | 0.74 µM | – | –
N#Cc1ccc(-c2cc(O)c(=O)[nH]c2-c2ccc(C#N)cc2)cc1 [5,6-bis(4-Cyanophenyl)-3-hydroxypyridin-2(1H)-one] | 0.1 µM | – | 159 to 162
N#Cc1ccc(-c2ccc(O)c(=O)[nH]2)cc1 [6-(4-Cyanophenyl-3-hydroxypyridin-2(1H)-one] | 1.2 µM | – | –
N#Cc1ccc(-c2cc(O)c(=O)[nH]c2-c2ccc(F)cc2)cc1 [5-(4-Cyanophenyl)-6-(4-fluorophenyl)-3-hydroxypyridin-2(1H)-one] | 0.136 µM | – | 255 to 257
O=c1[nH]cc(-c2cccc(-c3nnn[nH]3)c2)cc1O [5-[3-(1H-Tetrazol-5-yl)phenyl]-3-hydroxypyridin-2(1H)-one] | 0.85 µM | – | –
O=c1[nH]c(-c2ccc(C(F)(F)F)cc2)ccc1O [3-Hydroxy-6-(4-(trifluoromethyl)phenyl)pyridin-2(1H)-one] | 0.4 µM | – | –
O=c1[nH]c(-c2ccc(F)cc2)c(-c2ccc(-c3nnn[nH]3)cc2)cc1O [5-[4-(1H-Tetrazol-5-yl)phenyl]-6-(4-fluorophenyl)-3-hydroxypyridin-2(1H)-one] | – | – | 185 to 188
O=c1[nH]nc(-c2ccc(-c3nnn[nH]3)cc2)cc1O [6-(4-(1H-Tetrazol-5-yl)phenyl)-4-hydroxypyridazin-3(2H)-one] | – | 3 | –
COc1cccc(-c2ccc(O)c(=O)[nH]2)c1 [6-(3-Methoxyphenyl)-3-hydroxypyridin-2(1H)one] | 0.54 µM | – | –
N#Cc1ccc(-c2cc(O)c(=O)[nH]n2)cc1 [4-(5-Hydroxy-6-oxo-1,6-dihydropyridazin-3-yl)benzonitrile] | – | 9.3 | 305 to 307
N#Cc1ccc(-c2c[nH]c(=O)c(O)c2)cc1 [5-(p-Cyanophenyl-3-hydroxypyridin-2(1H)-one] | 6.07 µM | – | –
O=c1[nH]cc(-c2ccccc2)cc1O [5-Phenyl-3-hydroxypyridin-2(1H)-one] | > 10 µM | – | 175 to 177
O=c1[nH]c(-c2ccc(O)c(O)c2)ccc1O [6-(3,4-Dihydroxyphenyl)-3-hydroxypyridin-2(1H)-one] | 0.6 µM | – | –
O=c1[nH]c(-c2cccc(F)c2)c(-c2cccc(F)c2)cc1O [5,6-bis(3-Fluorophenyl)-3-hydroxypyridin-2(1H)-one] | 0.044 µM | – | –
NC(=O)c1ccc(-c2cc(O)c(=O)[nH]c2-c2ccc(C(N)=O)cc2)cc1 | 0.23 µM | – | –
O=C(O)c1cccc(-c2cc(O)c(=O)[nH]c2-c2cccc(C(=O)O)c2)c1 [3,3′-(5-Hydroxy-6-oxo-1,6-dihydropyridine-2,3-diyl)dibenzoic acid] | 0.7 µM | – | –
N#Cc1ccc(-c2[nH]c(=O)c(O)cc2-c2ccc(F)cc2)cc1 [5-(4-Fluorophenyl)-6-(4-cyanophenyl)-3-hydroxypyridin-2(1H)-one] | 0.054 µM | – | 255 to 258
O=c1[nH]cnc(-c2ccc(F)cc2)c1O [6-(4-Fluorophenyl)-5-hydroxypyrimidin-4(3H)-one] | 193 µM | – | 285 to 287

Reference: patent US9573938B2 (priority 2012, dated 2017)
